Test results: publication PMC12276035, “Novel Para‐Phenylenediamine‐Based Derivatives as Receptor Tyrosine Kinase‐like Orphan Receptor 1 (ROR1) Inhibitors: An In Vitro Preliminary Characterization” (Chemmedchem, 2025)

Experiments:
JeKo‐1 cells [1] = experiment: MTT cell viability assay, JeKo‐1; type: cell-based; settings: Homo sapiens, cytotoxicity, treated for 72 h, read-out: EC50 ± SD JeKo‐1
Procedure: (§1) Cytotoxicity studies, assessing the activity of the synthetized compounds, were performed only on the molecules showing the best binding profile in the SPR assay. MTT test was performed on two cell lines known for overexpressing ROR1, particularly MTT assays were conducted on JeKo‐1 (human mantle cell lymphoma) and SH‐SY5Y (neuroblastoma), exposing them to different concentrations of compounds for 72 h (Table 2 ). […] This increased effectiveness is likely due to the high expression of the target protein in leukemia and other hematologic malignancies. […] A key structural difference in 18 and 19 compared to active compounds is the absence of the trifluoromethyl group on the aromatic ring. Indeed, the removal of the trifluoromethyl group (18) or the incorporation of an electron‐donating substituent (19) alters the interaction with the ATP‐binding pocket.
The JeKo‐1 mantle cell lymphoma (MCL) cell line, derived from mantle cell lymphoma of B‐cell lineage, was obtained from ATCC and was grown in RPMI supplemented with 10% v/v fetal bovine serum, 2 mM L‐glutamine, 100 U mL^−1 penicillin, and 0.1 mg mL^−1 streptomycin.
(§2) Cell viability was established by measuring mitochondrial metabolic activity with MTT. In brief, SH‐SY5Y (20 × 10^3 cells/well) and JeKo‐1 (10 × 10^3 cells/well) were plated into 96‐well plates for 24 h, then the compounds (1.56–50 μM) were added. […], cells were replaced with a fresh medium containing 0.5 mg mL^−1 MTT.^[ [45] ^] Cells were incubated for 1–3 h at 37 °C, then the medium was discarded, and formazan blue crystals in the cells dissolved with 100 μL per well of a solution containing isopropanol/HCl 0.1 M. The absorbance was measured at 570 nm using a microplate reader (Multiskan Go, Thermo Scientific, Waltham, MA, USA). Cell viability was expressed as a percentage relative to the untreated cells cultured in medium with 0.1% DMSO and set to 100%, whereas 10% DMSO was used as positive control and set to 0% of viability. The EC50 values were calculated using GraphPad Prism 8.0 software by nonlinear regression of dose‐response inhibition.

JeKo‐1 cells [2] = experiment: Annexin V‐FITC/PI staining apoptosis, flow cytometry; type: cell-based, human; settings: JeKo‐1, 20 μM, 72 h, early and late apoptosis
Excerpt: This observation aligns with previous studies reporting that ROR1 is highly expressed in B‐cell malignancies, including mantle cell lymphoma, where it plays a crucial role in survival signaling and resistance to apoptosis.^[ [10], [32] ^] Given the higher susceptibility of JeKo‐1 cells to the inhibitor, we selected this model for further apoptotic analysis. However, for completeness, apoptotic data for the SH‐SY5Y cell line are also provided in the Supporting Information (Figure S39, Supporting Information). Specifically, cells were incubated with compounds 17, 20, or 29 (20 μM) for 72 h and a flow cytometry analysis using Annexin V/PI staining was performed. After treatment, a very strong increase in the apoptotic response was observed, in both early and late apoptotic populations compared to the negative control (Figure 4 ). […] These findings are in accordance with the literature and further support the potential of ROR1 inhibition in promoting cell death in mantle cell lymphoma.^[ [33] ^]
Figure 4 Proapoptotic activity of compounds 17, 20, and 29 (20 μM) on JeKo‐1 cells treated for 72 h. A) Representative flow cytometry plots using Annexin V‐FITC/PI staining for apoptosis. B) Related quantitative analysis is reported. Data are expressed as a percentage of live, apoptotic, and necrotic cells. Results are shown as mean ± standard deviation (SD) from three independent experiments. *** denote p < 0.001 versus Ctrl.
Apoptosis of the cells was assessed using annexin V‐FITC/PI reagents. JeKo‐1 cells (60 × 10^3 cells/well) were seeded into 24‐well plates and incubated for 72 h with compounds (20 and 10 μM). After treatment, the collected cells were resuspended in a 100 μL assay buffer, then 5 Annexin V‐FITC and 1 PI reagents were added following incubation for 20 min at room temperature according to the manufacturer's protocol (Dead Cell Apoptosis Kits with Annexin V for Flow Cytometry, Thermo Fisher Scientific). Cells were analyzed with a Becton Dickinson FACScan flow cytometer using the Cell Quest software, version 4 (Franklin Lakes, NJ, USA).^[ [46] ^]

Plasma stability assay = type: in vitro ADME; settings: mouse plasma, 120 min, 37 °C
Procedure: In addition to hepatic metabolism, drugs are also prone to degradation and modification by plasma enzymes, including hydrolases and esterases. Compounds with low plasma stability often show rapid clearance and a short half‐life. […] In this study, we assessed the metabolic stability of compound 17 by incubating it in mouse plasma for 120 min.
The plasma stability of compound 17 was evaluated. Briefly, mouse plasma is equilibrated to 37 °C and biotransformation is initiated by addition of compound solution and mixing. At each specified time point (0, 60, and 120 min), the test compound was extracted using ice‐cold methanol to halt degradation, with the IS added during the quenching phase. The concentration of the test compound was then quantified using LC‐MS. The percentage of the test compound remaining at each time point, relative to the 0 min reference, was recorded. Procaine (low stability) and procainamide (high stability) served as controls. All experiments were conducted in triplicate.

[3] = Plasma protein binding, rapid equilibrium dialysis; type: in vitro ADME; settings: 37 °C, read-out: drug bound to plasma proteins
Excerpt: Plasma protein binding plays a crucial role in drug distribution and biological activity. After absorption into systemic circulation, drug molecules may bind to plasma proteins, and the bound drug cannot cross biological membranes, rendering it unavailable to exert a pharmacological effect. Only the free drug, unbound to plasma proteins, is pharmacologically active.
A Rapid Equilibrium Dialysis Plate (Pierce™ RED, Thermo Scientific) was used to determine the percentage of compound binding to plasma proteins. Potassium phosphate buffer was added to each white well, and plasma/compound (1 μM) mixture was added to the red wells. The plate was sealed and incubated at 37 °C on an orbital shaker at 300 rpm for 4 h. Afterward, 50 μL of post‐dialysis samples from the buffer and plasma chambers were transferred into separate microcentrifuge tubes. An equal volume of plasma was added to the buffer sample, while the plasma sample received an equivalent volume of buffer. Precooled IS was added to the assay plate to quench the reaction. Compounds were quantified by LC‐MS/MS. The percentage of free and bound compound was calculated using the following equations: % free = (concentration in buffer chamber/concentration in plasma chamber) × 100, and % bound = 100 − % free.^[ [48] ^] All experiments were performed in duplicate. Propranolol was used as positive control.

SH‐SY5Y cells = experiment: MTT cell viability assay, SH‐SY5Y; type: cell-based; settings: Homo sapiens, cytotoxicity, treated for 72 h, read-out: EC50 ± SD SH‐SY5Y
Procedure: as §1
The neuroblastoma SH‐SY5Y cells, a human neuroblastoma cell line of neural crest origin, were obtained from ATCC and were grown in DMEM supplemented with 10% v/v fetal bovine serum, 2 mM L‐glutamine, 100 U mL^−1 penicillin, and 0.1 mg mL^−1 streptomycin.
as §2

compound remaining intact (Plasma stability assay): over 85% | fraction unbound at 4 h, 1 μM [3]: 0.01
Structure (SMILES): O=C(NCc1ccc(-c2ccccc2)cc1)Nc1ccc(NCC2CCNCC2)cc1C(F)(F)F [Compound 17]
EC50 (JeKo‐1 cells [1]): 10.3 ± 2.86 µM | apoptotic cells (JeKo‐1 cells [2]): 89.02 ± 3.12% | EC50 (SH‐SY5Y cells): 17.7 ± 2.73 µM
